Laboratory results reported in PMC3104124 (Journal of molecular biology, 2011).

Biological target: T1, Ste2p (wild type, C-terminally truncated) (Saccharomyces cerevisiae, UniProt D6VTK4)
T1 sequence (D6VTK4 1-304): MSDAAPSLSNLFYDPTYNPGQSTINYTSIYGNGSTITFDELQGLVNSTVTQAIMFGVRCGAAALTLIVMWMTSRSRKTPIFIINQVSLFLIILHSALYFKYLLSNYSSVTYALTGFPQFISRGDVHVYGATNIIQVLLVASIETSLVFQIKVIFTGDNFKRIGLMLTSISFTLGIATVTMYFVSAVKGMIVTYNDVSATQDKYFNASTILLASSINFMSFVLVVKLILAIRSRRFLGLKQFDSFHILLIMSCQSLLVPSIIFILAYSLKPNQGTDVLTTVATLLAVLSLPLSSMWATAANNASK
Experiment: Fluorescent ligand binding
Conditions: FL1/FL2 emission of the ligand labeled with NBD at Lys7, bound to normal Ste2p; normalised to [Lys^7(NBD),Nle^12]α-factor

Row | Substance | Relative Bmax Ratio
1 | [des-Trp^1,Ala^3,Nle^12]α-factor | 0.49 ± 0.03
2 | [desTrp^1,desHis^2,Nle^12]α-factor | 0.42 ± 0.05
